In ChEMBL document CHEMBL3045162, “Inhibition of HIV-1 replication by a tricyclic coumarin GUT-70 in acutely and chronically infected cells” (Bioorg Med Chem Lett, 2013):
Active and inactive are the calls of the source. No cut-off for these calls is given here.

Columns and labels:
[1] = test system: U1; assay: Inhibition of NF-kappaB-mediated viral replication in Homo sapiens (human) U1 cells […] at 10 uM after 24 hr by RT-PCR analysis in presence of TNF-alpha; format: cell-based
[2] = test system: Human immunodeficiency virus 1; assay: Antiviral activity against X4 tropic Human immunodeficiency virus 1 NL4-3 infected human Molt4 cells assessed as intracellular p24 expression at 10 uM after 7 days by flow cytometry; format: functional, organism-based; details: MOLT-4
[3] = target: Transcription factor p65 (Homo sapiens) (UniProt Q04206); assay: Inhibition of NF-kappa B p65 activity in TNFalpha-treated Homo sapiens (human) U1 cells at 10 uM after 2 to 4 hr by luciferase assay; format: cell-based
[4] = test system: Human immunodeficiency virus 1; assay: Antiviral activity against X4 tropic Human immunodeficiency virus 1 NL4-3 infected human Molt4 cells assessed as intracellular p24 expression after 4 to 7 days by flow cytometry; format: functional, organism-based; details: Human immunodeficiency virus 1, NL4-3, MOLT-4
[5] = test system: TZM-bl; assay: Inhibition of NF-kappaB-mediated viral replication in Homo sapiens (human) TZM-bl cells infected with X4 tropic HIV1 NL4-3 compound pre-treated for 2hr before infection measured after 24 hr by luciferase assay; format: cell-based
[6] = test system: Human immunodeficiency virus 1; assay: Antiviral activity against X4 tropic Human immunodeficiency virus 1 NL4-3 infected human Molt4 cells assessed as intracellular p24 expression at 10 uM after 4 days by flow cytometry; format: functional, organism-based; details: MOLT-4
[7] = test system: U1; assay: Cytotoxicity against Homo sapiens (human) U1 cells by MTT assay in presence of PMA; format: cell-based
[8] = Selectivity index, ratio of IC50 for human MOLT4 cells to EC50 for X4 tropic HIV1 NL4-3 infected in human Molt4 cells; format: toxicity, cell-based, MOLT-4; details: read-out: Ratio IC50/EC50
[9] = Selectivity index, ratio of IC50 for PMA-stimulated human U1 cells to EC50 for X4 tropic HIV1 NL4-3 infected in PMA-stimulated human U1 cells; format: toxicity, cell-based; details: with X4 tropic HIV1 NL4-3, read-out: Ratio IC50/EC50
[10] = test system: Human immunodeficiency virus 1; assay: Antiviral activity against Human immunodeficiency virus 1 infected U1 cells assessed as intracellular p24 expression after 24 hr by flow cytometry in presence of PMA; format: functional, organism-based
[11] = target: Transcription factor p65 (Homo sapiens) (UniProt Q04206); assay: Reduction in NF-kappa B p65 cytosolic level in TNFalpha-treated Homo sapiens (human) U1 cells after 0.5 to 6 hr by Western blot analysis; format: cell-based
[12] = Selectivity index, ratio of IC50 for TNF-alpha-stimulated human U1 cells to EC50 for X4 tropic HIV1 NL4-3 infected in TNF-alpha-stimulated human U1 cells; format: toxicity, cell-based; details: with X4 tropic HIV1 NL4-3, read-out: Ratio IC50/EC50
[13] = test system: Human immunodeficiency virus 1; assay: Antiviral activity against Human immunodeficiency virus 1 infected U1 cells assessed as intracellular p24 expression after 24 hr by flow cytometry in presence of TNF-alpha; format: functional, organism-based
[14] = test system: MOLT-4; assay: Inhibition of NF-kappaB-mediated viral replication in Homo sapiens (human) Molt-4 cells infected with X4 tropic HIV1 NL4-3 at 10 uM after 24 hr by RT-PCR analysis; format: cell-based
[15] = test system: U1; assay: Cytotoxicity against Homo sapiens (human) U1 cells by MTT assay in presence of TNF-alpha; format: cell-based
[16] = target: Transcription factor p65 (Homo sapiens) (UniProt Q04206); assay: Inhibition of NF-kappa B p65 nuclear translocation in TNFalpha-treated Homo sapiens (human) U1 cells after 0.5 to 6 hr by Western blot analysis; format: cell-based
[17] = target: Transcription factor p65 (Homo sapiens) (UniProt Q04206); assay: Binding affinity to NF-kappa B p65 in Homo sapiens (human) U1 nuclear extract after 0.5 to 4 hr by competitive EMSA
[18] = test system: MOLT-4; assay: Cytotoxicity against Homo sapiens (human) MOLT4 cells by MTT assay; format: cell-based
[19] = Cytotoxicity against Homo sapiens (human) TZM-bl cells by MTT assay; format: cell-based
[20] = Human immunodeficiency virus 1, U1, 24 h

Chain of Transcription factor p65 (Homo sapiens) (Q04206 whole entry): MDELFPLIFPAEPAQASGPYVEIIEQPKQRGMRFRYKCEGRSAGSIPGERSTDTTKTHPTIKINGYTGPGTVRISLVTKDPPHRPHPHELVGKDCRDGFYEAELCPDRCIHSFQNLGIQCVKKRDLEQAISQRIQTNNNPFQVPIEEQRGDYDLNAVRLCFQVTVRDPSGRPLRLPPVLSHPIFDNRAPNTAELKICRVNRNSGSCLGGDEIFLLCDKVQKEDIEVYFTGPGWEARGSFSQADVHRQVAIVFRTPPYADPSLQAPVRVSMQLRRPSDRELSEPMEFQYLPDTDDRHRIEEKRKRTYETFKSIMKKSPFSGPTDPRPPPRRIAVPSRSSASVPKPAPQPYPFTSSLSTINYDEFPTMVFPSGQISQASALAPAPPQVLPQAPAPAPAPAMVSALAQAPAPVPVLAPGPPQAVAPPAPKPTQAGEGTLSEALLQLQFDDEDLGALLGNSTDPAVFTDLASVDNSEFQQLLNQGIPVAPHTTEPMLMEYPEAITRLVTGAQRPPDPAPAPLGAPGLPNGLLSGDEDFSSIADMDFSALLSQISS

## CC(C)(C)c1ccc(S(=O)(=O)/C=C/C#N)cc1
[1]
  inhibition: Active

## CC(C)C[C@H](NC(=O)[C@H](Cc1ccccc1)NC(=O)c1cnccn1)B(O)O
[1]
  inhibition: Active

## C/C=C(\C)C(=O)c1c(OC)c2c(c3c(CCC)cc(=O)oc13)OC(C)(C)C=C2
[2]
  Activity: Active
[3]
  inhibition: Active
[4]
  EC50: 3.41 µM
[5]
  inhibition: Active
[6]
  Activity: Active
[7]
  IC50: 8.44 µM
[8]
  selectivity ratio: > 2.93
[9]
  selectivity ratio: 2.43
[10]
  Activity: Dose-dependent effect
[10]; [20]
  EC50: 3.48 µM
[11]
  Activity: inactive
[12]
  selectivity ratio: 1.95
[13]
  Activity: Dose-dependent effect
[13]; [20]
  EC50: 4.32 µM
[14]
  inhibition: Active
[15]
  IC50: 8.44 µM
[16]
  inhibition: Active
[17]
  Activity: Active
[18]
  IC50: > 10 µM
[19]
  IC50: > 10 µM
[1]
  inhibition: Active
